Test system: CD1 female mouse brain lipidome
Assay: Brain-region lipid levels (HPLC/MS/MS lipidomics) 2 h after single i.p. 3 mg/kg CP 55,940 vs vehicle
Type: in vivo
Description: The Bloomington Institutional Animal Care and Use Committee of Indiana University reviewed and approved the animal procedures. Female mice from the CD1 strain were utilized to match our study examining THC’s effects on the brain lipidome ([Leishman et al., 2018]). Mice were given a single i.p. injection of either 3 mg/kg CP or 1:1:18 cremophor:ethanol:saline vehicle (please refer to the section “3 mg/kg CP Is Relevant for Synthetic Cannabinoid Abuse and Has Stronger Effects on the Female Mouse Brain Lipidome During Adolescence” for a justification of dose and use of female mice). Three different age groups were given injections: PND 35 and PND 50 adolescents, and adult mice (PND 113). At least eight mice in each age group received CP and at least eight received vehicle. Matching the THC study time course ([Leishman et al., 2018]), mice were sacrificed via rapid decapitation 2 h after injection. Brains were immediately removed and flash-frozen in liquid nitrogen, and then stored at -80°C until dissections were performed. Brains were dissected on an ice-cold dissection plate into the following regions: STR, HIPP, CER, THAL, CTX, HYP, MID, and STEM. These abbreviations for these brain areas will be used exclusively when discussing the results generated by these specific dissections. Each dissected area was immediately placed in liquid nitrogen and then stored at -80°C until used for lipid extraction.
Tissue extracts were performed as previously described ([Bradshaw et al., 2006]; [Stuart et al., 2013]; [Raboune et al., 2014]; [Leishman et al., 2016a],[b], [2017], [2018]). First, samples were shock frozen in liquid nitrogen, weighed, and transferred to a centrifuge tube. The mass of the largest sample was multiplied by 50 to determine how many milliliters of HPLC-grade methanol (Fisher, Fair Lawn, NJ, United States) to add. Then, samples were spiked with 500 pmol deuterium-labeled NAGly (d8NAGly; Cayman Chemical, Ann Arbor, MI, United States). Samples were placed on ice in darkness for 2 h then individually homogenized and centrifuged at 19,000 × g for 20 min at 20°C. Supernatants were diluted with HPLC water (purified in house) to make a solution of 75% water, 25% supernatant. Lipids were partially purified on C18 solid phase extraction columns (Agilent, Palo Alto, CA, United States). A series of four elutions with 1.5 mL of 60%, 75%, 85%, and 100% methanol were collected ([Stuart et al., 2013]; [Leishman et al., 2016a],[b], [2018]).
As previously described ([Bradshaw et al., 2006]; [Tan et al., 2006]; [Smoum et al., 2010]; [Stuart et al., 2013]; [Tortoriello et al., 2013]; [Raboune et al., 2014]; [Leishman et al., 2016a],[b], [2017], [2018]), samples were analyzed using an Applied Biosystems API 3000 triple quadrupole mass spectrometer with electrospray ionization (Foster City, CA, United States). Using an Agilent XDB-C18 reversed phase analytical column and optimized mobile phase gradients, 20 μL from each elution were chromatographed. Two Shimadzu 10ADvp pumps (Columbia, MD, United States) provided the pressure for gradient elution. Mobile phase A: 20% methanol, 80% water (v/v) and 1 mM ammonium acetate (Sigma, St. Louis, MO, United States). Mobile phase B: 100% methanol, 1 mM ammonium acetate. Every method run began with 0% mobile phase B, reached 100% mobile phase B flowing at 0.2 mL/min, and gradually returned to 0% mobile phase B.
This screening library will be referred to as the lipidome when discussing data from this study. HPLC/MS/MS data were analyzed using Analyst software (Applied Biosystems) ([Bradshaw et al., 2006]; [Tan et al., 2006]; [Stuart et al., 2013]; [Tortoriello et al., 2013]; [Raboune et al., 2014]; [Leishman et al., 2016a],[b], [2017], [2018]). Chromatograms (Supplementary Figure 3) were generated by determining the retention time of analytes from the analytical column with a [M-1] or [M+1] parent peak and a fragmentation peak corresponding to the programmed values. […]

[1] = adult brainstem, 3mg/kg CP 55,940
[2] = adult cortex, 3 mg/kg CP 55,940, p .004
[3] = adult cortex, 3 mg/kg CP 55,940, p .008
[4] = adult cortex, 3 mg/kg CP 55,940, p .028
[5] = adult cortex, 3 mg/kg CP 55,940, p .055
[6] = adult cortex, 3 mg/kg CP 55,940, p .057
[7] = adult cortex, 3 mg/kg CP 55,940, p .077
[8] = adult cortex, 3 mg/kg CP 55,940, p .086
[9] = adult cortex, 3 mg/kg CP 55,940, p .090
[10] = adult female mice, brainstem, 3mg/kg CP 55,940

CCCCCCC(C)(C)c1ccc([C@@H]2C[C@H](O)CC[C@H]2CCCO)c(O)c1 [CP 55,940]
N-docosahexaenoyl alanine level, Mean [1]: 3.28E-13 | N-docosahexaenoyl ethanolamine level, Mean [1]: 2.85E-11 | N-docosahexaenoyl glycine level, Mean [1]: 5.52E-13 | N-docosahexaenoyl phenylalanine level, Mean [1]: 3.64E-14 | N-linoleoyl GABA level, Mean [1]: 6.22E-12 | N-linoleoyl alanine level, Mean [1]: 2E-13 | N-linoleoyl ethanolamine level, Mean [1]: 8.37E-12 | N-linoleoyl glycine level, Mean [1]: 1.41E-13 | N-linoleoyl methionine level, Mean [1]: BDL | N-oleoyl GABA level, Mean [1]: 1.65E-11 | N-oleoyl alanine level, Mean [1]: 3.26E-12 | N-oleoyl dopamine level, Mean [1]: BDL | N-oleoyl ethanolamine level, Mean [1]: 2.44E-10 | N-oleoyl ethanolamine, Direction (relative to Veh) [1]: ↓ | N-oleoyl ethanolamine, Magnitude (x Veh level) [1]: 0.76 x Veh level | N-oleoyl glycine level, Mean [1]: 2.1E-12 | N-oleoyl leucine level, Mean [1]: 2E-12 | N-oleoyl methionine level, Mean [1]: 4.11E-13 | N-oleoyl phenylalanine level, Mean [1]: 4.28E-13 | N-palmitoyl GABA level, Mean [1]: 1.95E-11 | N-palmitoyl alanine level, Mean [1]: 3.16E-12 | N-palmitoyl ethanolamine level, Mean [1]: 8.74E-11 | N-palmitoyl glycine level, Mean [1]: 2.79E-12 | N-palmitoyl leucine level, Mean [1]: 3.05E-12 | N-palmitoyl leucine, Direction (relative to Veh) [1]: ↑ | N-palmitoyl leucine, Magnitude (x Veh level) [1]: 1.30 x Veh level | N-palmitoyl methionine level, Mean [1]: 5.07E-12 | N-palmitoyl phenylalanine level, Mean [1]: 2.38E-13 | N-palmitoyl valine Direction (relative to Veh) [1]: ↑ | N-palmitoyl valine Magnitude (x Veh level) [1]: 1.43 x Veh level | N-stearoyl GABA level, Mean [1]: 1.37E-11 | N-stearoyl alanine level, Mean [1]: 5.4E-12 | N-stearoyl ethanolamine level, Mean [1]: 3.01E-11 | N-stearoyl glycine level, Mean [1]: 4.95E-12 | N-stearoyl leucine level, Mean [1]: 1.96E-12 | N-stearoyl methionine level, Mean [1]: 4.69E-13 | N-stearoyl phenylalanine level, Mean [1]: 1.53E-13 | Oleic acid, Direction (relative to Veh) [1]: ↓ | Oleic acid, Magnitude (x Veh level) [1]: 0.80 x Veh level | PGE2 Direction (relative to Veh) [1]: ↓ | PGE2 Magnitude (x Veh level) [1]: 0.87 x Veh level | 2-arachidonoyl glycerol level, Mean (adult cortex, 3mg/kg CP 55,940): 3.28E-09 | 2-linoleoyl glycerol level, Mean (adult cortex, 3mg/kg CP 55,940): 1.48E-10 | 2-oleoyl glycerol level, Mean (adult cortex, 3mg/kg CP 55,940): 1.56E-09 | 2-palmitoyl glycerol level, Mean (adult cortex, 3mg/kg CP 55,940): 8.13E-11 | 6-ketoPGF1α level, Mean (adult cortex, 3mg/kg CP 55,940): 1.5E-11 | 11-OH-THC level, Mean (adult cortex, 3mg/kg CP 55,940): BDL | 11-nor-9-carboxyTHC level, Mean (adult cortex, 3mg/kg CP 55,940): BDL | Arachidonic acid level, Mean (adult cortex, 3mg/kg CP 55,940): 9.03E-10 | Cannabidiol level, Mean (adult cortex, 3mg/kg CP 55,940): BDL | Linoleic acid level, Mean (adult cortex, 3mg/kg CP 55,940): 5.34E-10 | N- stearoyl valine level, Mean (adult cortex, 3mg/kg CP 55,940): 2.51E-14 | N-arachidonoyl proline level, Mean (adult cortex, 3mg/kg CP 55,940): BDL | N-arachidonoyl taurine level, Mean (adult cortex, 3mg/kg CP 55,940): 8.95E-11 | N-arachidonoyl tryptophan level, Mean (adult cortex, 3mg/kg CP 55,940): BDL | N-arachidonoyl tyrosine level, Mean (adult cortex, 3mg/kg CP 55,940): 6.06E-13 | N-docosahexaenoyl proline level, Mean (adult cortex, 3mg/kg CP 55,940): BDL | N-docosahexaenoyl tryptophan level, Mean (adult cortex, 3mg/kg CP 55,940): BDL | N-docosahexaenoyl tyrosine level, Mean (adult cortex, 3mg/kg CP 55,940): 3.81E-13 | N-linoleoyl proline level, Mean (adult cortex, 3mg/kg CP 55,940): BDL | N-linoleoyl serine level, Mean (adult cortex, 3mg/kg CP 55,940): 1.53E-11 | N-linoleoyl tryptophan level, Mean (adult cortex, 3mg/kg CP 55,940): BDL | N-linoleoyl tyrosine level, Mean (adult cortex, 3mg/kg CP 55,940): BDL | N-nervonoyl valine level, Mean (adult cortex, 3mg/kg CP 55,940): BDL | N-oleoyl proline level, Mean (adult cortex, 3mg/kg CP 55,940): BDL | N-oleoyl serine level, Mean (adult cortex, 3mg/kg CP 55,940): 8.25E-11 | N-oleoyl tryptophan level, Mean (adult cortex, 3mg/kg CP 55,940): BDL | N-oleoyl tyrosine level, Mean (adult cortex, 3mg/kg CP 55,940): 3.46E-13 | N-oleoyl valine level, Mean (adult cortex, 3mg/kg CP 55,940): 1.3E-14 | N-palmitoyl proline level, Mean (adult cortex, 3mg/kg CP 55,940): BDL | N-palmitoyl serine level, Mean (adult cortex, 3mg/kg CP 55,940): 6.45E-12 | N-palmitoyl tryptophan level, Mean (adult cortex, 3mg/kg CP 55,940): BDL | N-palmitoyl tyrosine level, Mean (adult cortex, 3mg/kg CP 55,940): 7.95E-13 | N-palmitoyl valine level, Mean (adult cortex, 3mg/kg CP 55,940): 1.13E-13 | N-stearoyl proline level, Mean (adult cortex, 3mg/kg CP 55,940): BDL | N-stearoyl serine level, Mean (adult cortex, 3mg/kg CP 55,940): 9.84E-12 | N-stearoyl tryptophan level, Mean (adult cortex, 3mg/kg CP 55,940): BDL | N-stearoyl tyrosine level, Mean (adult cortex, 3mg/kg CP 55,940): 1.21E-13 | Oleic acid level, Mean (adult cortex, 3mg/kg CP 55,940): 4.6E-10 | PGE2 level, Mean (adult cortex, 3mg/kg CP 55,940): 3.08E-10 | PhosphoLEA level, Mean (adult cortex, 3mg/kg CP 55,940): 1.8E-12 | THC level, Mean (adult cortex, 3mg/kg CP 55,940): BDL | 6-ketoPGF1α Direction (relative to Veh) [2]: ↓ | 6-ketoPGF1α Magnitude (x Veh level) [2]: 0.68 | N-palmitoyl valine Direction (relative to Veh) [3]: ↑ | N-palmitoyl valine Magnitude (x Veh level) [3]: 1.49 | PGF2α Direction (relative to Veh) [4]: ↓ | PGF2α Magnitude (x Veh level) [4]: 0.89 | N-linoleoyl GABA Direction (relative to Veh) [5]: ↓ | N-linoleoyl GABA Magnitude (x Veh level) [5]: 0.86 | N-stearoyl phenylalanine, Direction (relative to Veh) [6]: ↓ | N-stearoyl phenylalanine, Magnitude (x Veh level) [6]: 0.66 | Arachidonic acid, Direction (relative to Veh) [7]: ↓ | Arachidonic acid, Magnitude (x Veh level) [7]: 0.86 | N-arachidonoyl taurine Direction (relative to Veh) [8]: ↓ | N-arachidonoyl taurine Magnitude (x Veh level) [8]: 0.93 | 2-linoleoyl glycerol Direction (relative to Veh) [9]: ↓ | 2-linoleoyl glycerol Magnitude (x Veh level) [9]: 0.76 | 2-arachidonoyl glycerol level, Mean [10]: 4.32E-09 | 2-linoleoyl glycerol level, Mean [10]: 2.54E-10 | 2-oleoyl glycerol level, Mean [10]: 3.17E-09 | 2-palmitoyl glycerol level, Mean [10]: 3.83E-11
